From ChEMBL document CHEMBL4219271, “Synthesis and anti-proliferative activity of allogibberic acid derivatives containing 1,2,3-triazole pharmacophore” (Bioorg Med Chem Lett, 2018)

Assays:
SMMC-7721 [1] = assay: Cell cycle arrest in human SMMC7721 cells assessed as accumulation at S phase at 3.4 uM after 24 hrs by propidium iodide staining based flow cytometry (reference value: 13.71 +/- 0.62%); type: functional
SMMC-7721 [2] = assay: Induction of apoptosis in human SMMC7721 cells assessed as necrotic cells at 0.85 uM after 48 hrs by Annexin V-FITC/PI double staining based flow cytometry (reference value: 0%); type: functional
SMMC-7721 [3] = assay: Induction of apoptosis in human SMMC7721 cells assessed as late apoptotic cells at 0.85 uM after 48 hrs by Annexin V-FITC/PI double staining based flow cytometry (reference value: 0%); type: functional
SMMC-7721 [4] = assay: Induction of apoptosis in human SMMC7721 cells assessed as viable cells at 0.85 uM after 48 hrs by Annexin V-FITC/PI double staining based flow cytometry (reference value: 100%); type: functional; conditions: SMMC-7721, 48 h, read-out: Activity
SMMC-7721 [5] = assay: Induction of apoptosis in human SMMC7721 cells assessed as late apoptotic cells at 1.7 uM after 48 hrs by Annexin V-FITC/PI double staining based flow cytometry (reference value: 0%); type: functional
MCF7 = assay: Cytotoxicity against human MCF7 cells assessed as decrease in cell viability after 4 days by MTT assay; type: functional, cell-based; conditions: MCF7, 96 h
SMMC-7721 [6] = assay: Induction of apoptosis in human SMMC7721 cells assessed as viable cells at 1.7 uM after 48 hrs by Annexin V-FITC/PI double staining based flow cytometry (reference value: 100%); type: functional; conditions: SMMC-7721, 48 h, read-out: Activity
SW480 [7] = assay: Cytotoxicity against human SW480 cells assessed as decrease in cell viability after 4 days by MTT assay; type: functional, cell-based; conditions: SW480, 96 h
SMMC-7721 [8] = assay: Induction of apoptosis in human SMMC7721 cells assessed as late apoptotic cells at 0.425 uM after 48 hrs by Annexin V-FITC/PI double staining based flow cytometry (reference value: 0%); type: functional
SMMC-7721 [9] = assay: Induction of apoptosis in human SMMC7721 cells assessed as early apoptotic cells at 3.4 uM after 48 hrs by Annexin V-FITC/PI double staining based flow cytometry (reference value: 0.035%); type: functional
SMMC-7721 [10] = assay: Cell cycle arrest in human SMMC7721 cells assessed as accumulation at G0/G1 phase at 0.425 uM after 24 hrs by propidium iodide staining based flow cytometry (reference value: 77.85 +/- 1.90%); type: functional
SMMC-7721 [11] = assay: Induction of apoptosis in human SMMC7721 cells assessed as viable cells at 0.425 uM after 48 hrs by Annexin V-FITC/PI double staining based flow cytometry (reference value: 100%); type: functional; conditions: SMMC-7721, 48 h, read-out: Activity
SMMC-7721 [12] = assay: Induction of apoptosis in human SMMC7721 cells assessed as necrotic cells at 3.4 uM after 48 hrs by Annexin V-FITC/PI double staining based flow cytometry (reference value: 0%); type: functional
SMMC-7721 [13] = assay: Cell cycle arrest in human SMMC7721 cells assessed as accumulation at G0/G1 phase at 1.7 uM after 24 hrs by propidium iodide staining based flow cytometry (reference value: 77.85 +/- 1.90%); type: functional
SMMC-7721 [14] = assay: Induction of apoptosis in human SMMC7721 cells assessed as necrotic cells at 1.7 uM after 48 hrs by Annexin V-FITC/PI double staining based flow cytometry (reference value: 0%); type: functional
HL-60 = assay: Cytotoxicity against human HL60 cells assessed as decrease in cell viability after 4 days by MTT assay; type: functional, cell-based; conditions: HL-60, 96 h
SMMC-7721 [15] = assay: Cell cycle arrest in human SMMC7721 cells assessed as accumulation at G0/G1 phase at 0.85 uM after 24 hrs by propidium iodide staining based flow cytometry (reference value: 77.85 +/- 1.90%); type: functional
SMMC-7721 [16] = assay: Cell cycle arrest in human SMMC7721 cells assessed as accumulation at G2/M phase at 3.4 uM after 24 hrs by propidium iodide staining based flow cytometry (reference value: 5.72 +/- 0.59%); type: functional
A549 = assay: Cytotoxicity against human A549 cells assessed as decrease in cell viability after 4 days by MTT assay; type: functional, cell-based; conditions: A549, 96 h
SMMC-7721 [17] = assay: Cytotoxicity against human SMMC7721 cells assessed as decrease in cell viability after 4 days by MTT assay; type: functional, cell-based; conditions: SMMC-7721, 96 h
SMMC-7721 [18] = assay: Cell cycle arrest in human SMMC7721 cells assessed as accumulation at S phase at 0.425 uM after 24 hrs by propidium iodide staining based flow cytometry (reference value: 13.71 +/- 0.62%); type: functional
SMMC-7721 [19] = assay: Cell cycle arrest in human SMMC7721 cells assessed as accumulation at G2/M phase at 0.425 uM after 24 hrs by propidium iodide staining based flow cytometry (reference value: 5.72 +/- 0.59%); type: functional
SMMC-7721 [20] = assay: Induction of apoptosis in human SMMC7721 cells assessed as viable cells at 3.4 uM after 48 hrs by Annexin V-FITC/PI double staining based flow cytometry (reference value: 100%); type: functional; conditions: SMMC-7721, 48 h, read-out: Activity
SW480 [21] = assay: Potency index, ratio of cisplatin IC50 to compound IC50 for human SW480 cells; type: functional
SMMC-7721 [22] = assay: Induction of apoptosis in human SMMC7721 cells assessed as early apoptotic cells at 0.85 uM after 48 hrs by Annexin V-FITC/PI double staining based flow cytometry (reference value: 0.035%); type: functional
SMMC-7721 [23] = assay: Cell cycle arrest in human SMMC7721 cells assessed as accumulation at G2/M phase at 1.7 uM after 24 hrs by propidium iodide staining based flow cytometry (reference value: 5.72 +/- 0.59%); type: functional
SMMC-7721 [24] = assay: Induction of apoptosis in human SMMC7721 cells assessed as necrotic cells at 0.425 uM after 48 hrs by Annexin V-FITC/PI double staining based flow cytometry (reference value: 0%); type: functional
SMMC-7721 [25] = assay: Induction of apoptosis in human SMMC7721 cells assessed as late apoptotic cells at 3.4 uM after 48 hrs by Annexin V-FITC/PI double staining based flow cytometry (reference value: 0%); type: functional
SMMC-7721 [26] = assay: Induction of apoptosis in human SMMC7721 cells assessed as early apoptotic cells at 0.425 uM after 48 hrs by Annexin V-FITC/PI double staining based flow cytometry (reference value: 0.035%); type: functional
SMMC-7721 [27] = assay: Cell cycle arrest in human SMMC7721 cells assessed as accumulation at G0/G1 phase at 3.4 uM after 24 hrs by propidium iodide staining based flow cytometry (reference value: 77.85 +/- 1.90%); type: functional
SMMC-7721 [28] = assay: Cell cycle arrest in human SMMC7721 cells assessed as accumulation at G2/M phase at 0.85 uM after 24 hrs by propidium iodide staining based flow cytometry (reference value: 5.72 +/- 0.59%); type: functional
SMMC-7721 [29] = assay: Cell cycle arrest in human SMMC7721 cells assessed as accumulation at S phase at 1.7 uM after 24 hrs by propidium iodide staining based flow cytometry (reference value: 13.71 +/- 0.62%); type: functional
SMMC-7721 [30] = assay: Cell cycle arrest in human SMMC7721 cells assessed as accumulation at S phase at 0.85 uM after 24 hrs by propidium iodide staining based flow cytometry (reference value: 13.71 +/- 0.62%); type: functional
SMMC-7721 [31] = assay: Cell cycle arrest in human SMMC7721 cells assessed as accumulation at S phase after 24 hrs by propidium iodide staining based flow cytometry; type: functional
SMMC-7721 [32] = assay: Induction of apoptosis in human SMMC7721 cells assessed as early apoptotic cells at 1.7 uM after 48 hrs by Annexin V-FITC/PI double staining based flow cytometry (reference value: 0.035%); type: functional

C=C1C(=O)[C@]23C[C@@]1(O)CC[C@H]2c1ccc(O)c(C)c1[C@@H]3Cn1cc(-c2ccc(F)cc2)nn1
Activity (SMMC-7721 [1]): 22.73%
Activity (SMMC-7721 [2]): 1.72%
Activity (SMMC-7721 [3]): 10.7%
viability at 0.85 µM (SMMC-7721 [4]): 79.8%
Activity (SMMC-7721 [5]): 22.7%
IC50 (MCF7): 1700 nM
viability at 1.7 µM (SMMC-7721 [6]): 43.4%
IC50 (SW480 [7]): 250 nM
Activity (SMMC-7721 [8]): 12.7%
Activity (SMMC-7721 [9]): 90.4%
Activity (SMMC-7721 [10]): 78.27%
viability at 0.425 µM (SMMC-7721 [11]): 80.9%
Activity (SMMC-7721 [12]): 0.053%
Activity (SMMC-7721 [13]): 70.87%
Activity (SMMC-7721 [14]): 1.97%
IC50 (HL-60): 660 nM
Activity (SMMC-7721 [15]): 74.23%
Activity (SMMC-7721 [16]): 0.89%
IC50 (A549): 940 nM
IC50 (SMMC-7721 [17]): 850 nM
Activity (SMMC-7721 [18]): 13.92%
Activity (SMMC-7721 [19]): 6.24%
viability at 3.4 µM (SMMC-7721 [20]): 2.17%
Ratio IC50 (SW480 [21]): 33
Activity (SMMC-7721 [22]): 7.83%
Activity (SMMC-7721 [23]): 6.05%
Activity (SMMC-7721 [24]): 3.14%
Activity (SMMC-7721 [25]): 7.41%
Activity (SMMC-7721 [26]): 3.31%
Activity (SMMC-7721 [27]): 71.54%
Activity (SMMC-7721 [28]): 7.7%
Activity (SMMC-7721 [29]): 19.35%
Activity (SMMC-7721 [30]): 17.38%
Activity (SMMC-7721 [31]): Dose-dependent effect
Activity (SMMC-7721 [32]): 31.9%
